Data on 4 compounds can be found in ChEMBL document CHEMBL1687754, “Chip calorimetry for fast and reliable evaluation of bactericidal and bacteriostatic treatments of biofilms” (2010).

The test system of experiment [1] is Pseudomonas putida. In words: Inactivation of Pseudomonas putida PAW340 biofilms assessed as decrease in heat production at 3 to 30 ug/ml by Chip calorimetry. Type of experiment: functional, organism-based. The following applies: TDE = time-dependent effect.
Experiment [2] relates to Neisseria gonorrhoeae. In words: Antibacterial activity against Neisseria gonorrhoeae. Type of experiment: functional.
In experiment [3] the test system is Pseudomonas putida. Kind of experiment: Effect on Pseudomonas putida PAW340 biofilms assessed as heat production at 70 ug/ml by Chip calorimetry. Type of experiment: functional.
Experiment [4] relates to Pseudomonas putida. Kind of experiment: Effect on Pseudomonas putida PAW340 biofilms assessed as heat production at 3 ug/ml by Chip calorimetry. Type of experiment: functional.
Experiment [5] concerns Pseudomonas putida. In words: Effect on Pseudomonas putida PAW340 biofilms assessed as heat production at 250 ug/ml by Chip calorimetry. The format is functional.
In experiment [6] the test system is Escherichia coli. Kind of experiment: Antibacterial activity against Escherichia coli. The format is functional.
The test system of experiment [7] is Klebsiella pneumoniae. Kind of experiment: Antibacterial activity against Klebsiella pneumoniae. The format is functional.
For experiment [8], the system named is Staphylococcus aureus. Kind of experiment: Antibacterial activity against Staphylococcus aureus. Type of experiment: functional.
For experiment [9], the system named is Pseudomonas aeruginosa. In words: Antibacterial activity against Pseudomonas aeruginosa. The format is functional.
Experiment [10] relates to Pseudomonas putida. Kind of experiment: Inactivation of Pseudomonas putida PAW340 biofilms assessed as decrease in heat production at 0.5 mM by Chip calorimetry. The format is functional, organism-based.
The subject of experiment [11] is Pseudomonas putida. Kind of experiment: Inactivation of Pseudomonas putida PAW340 biofilms assessed as decrease in ATP content at 0.5 mM by Chip calorimetry. The format is functional, organism-based.
The subject of experiment [12] is Pseudomonas putida. Kind of experiment: Inactivation of Pseudomonas putida PAW340 biofilms assessed as decrease in heat production at 0.5 mM within 1 hr by Chip calorimetry. The format is functional. Details: scale not given: the % may be the effect or the level left.
For experiment [13], the system named is Pseudomonas putida. Kind of experiment: Inactivation of Pseudomonas putida PAW340 biofilms assessed as decrease in heat production by Chip calorimetry. Type of experiment: functional, organism-based.
Experiment [14] relates to Pseudomonas putida. In words: Antibacterial activity against Pseudomonas putida PAW340 assessed as decrease in bacterial count at 20 to 150 ug/ml. Type of experiment: functional, organism-based.

In brackets after ≈: the same amount, converted by molar mass. Activity calls are given as the source filed them. No cut-off for these calls is given here.

Turning to `NC[C@H]1O[C@H](O[C@H]2[C@H](O)[C@@H](O[C@H]3O[C@H](CO)[C@@H](O)[C@H](N)[C@H]3O)[C@H](N)C[C@@H]2N)[C@H](O)[C@@H](O)[C@@H]1O` [KANAMYCIN], in experiment [1], the Activity entry was “tde”. For the same compound, in [2], it took 2 µg/mL (≈ 4.13 µM) to inhibit growth (MIC).

On to `CN(C)[C@@H]1C(O)=C(C(N)=O)C(=O)[C@@]2(O)C(O)=C3C(=O)c4c(O)cccc4[C@@](C)(O)[C@H]3C[C@@H]12` [TETRACYCLINE], for which the Activity came out at 118% in experiment [3], 100% in experiment [4] and 100% in experiment [5]. Also, the MIC (commonly the least concentration at which growth counts as inhibited) in [6] amounted to 0.07 µg/mL (≈ 0.158 µM); in experiment [7], 2.5 µg/mL (≈ 5.63 µM); in experiment [8], 0.15 µg/mL (≈ 0.338 µM); in experiment [9], 6.25 µg/mL (≈ 14.1 µM).

Take `O=[N+]([O-])c1ccc(O)c([N+](=O)[O-])c1` [2,4-DINITROPHENOL]: the outcome in [10] and in [11] was Active. In [12], the Activity is 90%.

As to `O=C(O)c1cn(C2CC2)c2cc(N3CCNCC3)c(F)cc2c1=O`, in [13], the Activity result is “Dose-dependent effect”. The outcome in experiment [14] was Active.
